Laboratory results published in patent US6875760B2 (Novo Nordisk A/S, priority 1999, dated 2005).

What follows are molecules tested against T1, human glucagon receptor (Homo sapiens, UniProt P47871) (assay: Glucagon Binding Assay (III)). Details: BHK cell membranes, WGA SPA beads, 125I-glucagon; read-out: Glu Bd Assay (III) IC50.
T1 construct: expressed in transfected cells; host or cells: BHK (baby hamster kidney) cells
T1 sequence (P47871 26-477): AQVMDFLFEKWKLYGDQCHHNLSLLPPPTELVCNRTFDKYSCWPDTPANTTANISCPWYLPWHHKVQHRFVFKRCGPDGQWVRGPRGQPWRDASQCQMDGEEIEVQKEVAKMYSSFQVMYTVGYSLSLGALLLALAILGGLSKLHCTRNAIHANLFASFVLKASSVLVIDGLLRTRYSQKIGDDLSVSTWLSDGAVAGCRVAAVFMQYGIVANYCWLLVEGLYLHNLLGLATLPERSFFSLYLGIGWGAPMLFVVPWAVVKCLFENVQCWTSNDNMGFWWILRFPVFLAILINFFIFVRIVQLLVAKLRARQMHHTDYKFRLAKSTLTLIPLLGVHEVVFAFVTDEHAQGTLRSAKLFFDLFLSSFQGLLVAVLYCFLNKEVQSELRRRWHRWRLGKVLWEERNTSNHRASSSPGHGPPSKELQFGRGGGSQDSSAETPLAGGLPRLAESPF
How it was run: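 Non-specific binding was set with 500 nM glucagon in this SPA-type binding assay using WGA beads. The receptor source was a membrane preparation, kept on ice or at 4 °C, from BHK cells transfected with the human receptor. Scintillation counts were taken after 4 hours of shaking and 8–48 hours of settling.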
With `CCCCNS(=O)(=O)c1ccc(NC(=O)N(Cc2ccc(C(=O)NCCC(=O)O)cc2)[C@H]2CC[C@H](C(C)(C)C)CC2)cc1` [Example 239, 3-{4-[1-(trans-4-tert-Butylcyclohexyl)-3-(4-butylsulfamoylphenyl)ureidomethyl]benzoylamino}propionic acid] the IC50 was 1890 nM.
`CC(C)(C)C1CCC(N(Cc2ccc(C(=O)Nc3nn[nH]n3)cc2)C(=O)Cc2ccc(-c3ccccc3)cc2)CC1` (centres unmarked) [Example 547, 4-{[(2-Biphenyl-4-ylacetyl)-(4-tert-butylcyclohexyl)amino]methyl}-N-(2H-tetrazol-5-yl)benzamide] was tested, and the IC50 was 88 nM.
Molecule `CC(C)C1CCC(N(Cc2ccc(C(=O)NCCC(=O)O)cc2)C(=O)Nc2ccc(OC(F)(F)F)cc2)CC1` (centres unmarked) [Example 82, 3-{4-[1-(4-Isopropylcyclohexyl)-3-(4-trifluoromethoxyphenyl)ureidomethyl]benzoylamino}propionic acid] has an IC50 of 59 nM.
With `COC(=O)c1cc(-c2cccc(NC(=O)N(Cc3ccc(C(=O)NCCC(=O)O)cc3)[C@H]3CC[C@H](C4CCCCC4)CC3)c2)oc1C` [Example 392, 5-(3-{3-(trans-4-Cyclohexylcyclohexyl)-3-[4-(2-carboxyethylcarbamoyl)benzyl]ureido}phenyl)-2-methylfuran-3-carboxylic acid methyl ester] the IC50 was 36 nM.
`O=C(O)CCNC(=O)c1ccc(CN(C(=O)c2cc3cc(Cl)ccc3o2)c2ccc(C3CCCCC3)cc2)cc1` [Example 561, 3-(4-{[(5-Chlorobenzofuran-2-carbonyl)-(4-cyclohexylphenyl)amino]methyl}benzoylamino)propionic acid] gave an IC50 of 372 nM.
Work on `CCCCOC(=O)c1ccc(NC(=O)N(Cc2ccc(C(=O)NCCC(=O)O)cc2)C2CCC(C(C)C)CC2)cc1` (centres unmarked) [Example 84, 4-[3-[4-(2-Carboxyethylcarbamoyl)benzyl]-3-(4-isopropylcyclohexyl)ureido]benzoic acid butyl ester] yielded an IC50 of 261 nM.
In the case of `O=C(O)c1ccc2nc(NC(=O)N(Cc3ccc(C(=O)Nc4nn[nH]n4)cc3)c3ccc(C4CCCCC4)cc3)sc2c1` [Example 364, 2-{3-(4-Cyclohexylphenyl)-3-[4-(2H-tetrazol-5-ylcarbamoyl)benzyl]ureido}benzothiazole-6-carboxylic acid], the IC50 is reported as 2680 nM.
With `CS(=O)(=O)c1ccc(OC(=O)N(Cc2ccc(C(=O)NCCC(=O)O)cc2)c2ccc(C3CCCCC3)cc2)cc1` [Example 621, 3-(4-{[(4-Cyclohexylphenyl)-(4-(methylsulfonyl)phenoxycarbonyl)amino]methyl}benzoylamino)propionic acid] the IC50 was 4600 nM.
Work on `CS(=O)(=O)c1ccc(C(=O)N(Cc2ccc(C(=O)Nc3nn[nH]n3)cc2)c2ccc(C3CCCCC3)cc2)cc1` [Example 483, 4-{[(4-Cyclohexylphenyl)-(4-methylsulfonylbenzoyl)amino]methyl}-N-(2H-tetrazol-5-yl)benzamide] yielded an IC50 of 1120 nM.
For `CC(C)(C)c1ccc(N(Cc2ccc(C(=O)Nc3nn[nH]n3)cc2)C(=O)Nc2ccc(SC(F)(F)F)cc2)cc1` [Example 332, 4-[1-(4-tert-Butylphenyl)-3-(4-trifluoromethylsulfanylphenyl)ureidomethyl]-N-(2H-tetrazol-5-yl)benzamide], the IC50 was 20 nM.
`O=C(Nc1nn[nH]n1)c1ccc(CN(C(=O)NCc2ccccc2-c2ccccc2)c2ccc(C3CCCCC3)cc2)cc1` [Example 354, 4-[3-Biphenyl-2-ylmethyl-1-(4-cyclohexylphenyl)ureidomethyl]-N-(2H-tetrazol-5-yl)benzamide] was tested, and the IC50 was 11 nM.
Work on `CC(=O)c1ccc(NC(=O)N(Cc2ccc(C(=O)Nc3nn[nH]n3)cc2)C2CCC(C(C)(C)C)CC2)cc1` (centres unmarked) [Example 273, 4-[3-(4-Acetylphenyl)-1-(4-tert-butylcyclohexyl)ureidomethyl]-N-(2H-tetrazol-5-yl)benzamide] yielded an IC50 of 319 nM.
`O=C(Nc1nn[nH]n1)c1ccc(CN(C(=O)Nc2cccc(SC3CCCC3)c2)c2ccc(C3CCCCC3)cc2)cc1` [Example 300, 4-[1-(4-Cyclohexylphenyl)-3-(3-cyclopentylsulfanylphenyl)ureidomethyl]-N-(2H-tetrazol-5-yl)benzamide] gave an IC50 of 197 nM.
In the case of `O=C(O)CCNC(=O)c1ccc(CN(C(=O)Nc2cccc([N+](=O)[O-])c2)c2ccc(C3CCCCC3)cc2)cc1` [Example 443, 3-{4-[1-(4-Cyclohexylphenyl)-3-(3-nitrophenyl)ureidomethyl]benzoylamino}propionic acid], the IC50 is reported as 167 nM.
Work on `CCCCc1ccc(N(Cc2ccc(C(=O)Nc3nn[nH]n3)cc2)C(=O)Nc2cccc([N+](=O)[O-])c2)cc1` [Example 288, 4-[1-(4-Butylphenyl)-3-(3-nitrophenyl)ureidomethyl]-N-(2H-tetrazol-5-yl)benzamide] yielded an IC50 of 75 nM.
`O=C(Nc1nn[nH]n1)c1ccc(CN(C(=O)c2cc3cc(OC(F)(F)F)ccc3[nH]2)c2ccc(C3CCCCC3)cc2)cc1` [Example 558, 5-Trifluoromethoxy-1H-indole-2-carboxylic acid (4-cyclohexylphenyl)-[4-(2H-tetrazol-5-ylcarbamoyl)benzyl]amide] gave an IC50 of 1060 nM.
In the case of `O=C(O)CCNC(=O)c1ccc(CN(CC(c2ccccc2)c2ccccc2)C(=O)Nc2ccc(Oc3ccccc3)cc2)cc1` [Example 53, 3-{4-[1-(2,2-Diphenylethyl)-3-(4-phenoxyphenyl)ureidomethyl]benzoylamino}propionic acid], the IC50 is reported as 505 nM.
For `CC(C)(C)[C@H]1CC[C@H](N(Cc2ccc(C(=O)Nc3nn[nH]n3)cc2)C(=O)Nc2ccc(OCC3CC3)cc2C(F)(F)F)CC1` [Example 334, 4-[1-(trans-4-tert-Butylcyclohexyl)-3-(4-cyclopropylmethoxy-2-trifluoromethylphenyl)ureidomethyl]-N-(2H-tetrazol-5-yl)benzamide], the IC50 was 288 nM.
With `CC(C)(C)C1CCC(N(Cc2ccc(C(=O)NCCC(=O)O)cc2)C(=O)Nc2ccc(F)c(F)c2)CC1` (centres unmarked) [Example 72, 3-{4-[1-(4-tert-Butylcyclohexyl)-3-(3,4-difluorophenyl)ureidomethyl]benzoylamino}propionic acid] the IC50 was 673 nM.
Molecule `CC(C)(C)c1ccc(N(Cc2ccc(C(=O)Nc3nn[nH]n3)cc2)C(=O)Nc2cccc(C(=O)O)c2)cc1` [Example 456, 3-{3-(4-tert-Butylphenyl)-3-[4-(2H-tetrazol-5-ylcarbamoyl)benzyl]ureido}benzoic acid] has an IC50 of 2810 nM.
In the case of `O=C(Nc1nn[nH]n1)c1ccc(CN(C(=O)c2ccc(Cc3ccccc3)cc2)c2ccc(C3CCCCC3)cc2)cc1` [Example 508, 4-{[(4-Cyclohexylphenyl)-(4-benzylbenzoyl)amino]methyl}-N-(2H-tetrazol-5-yl)benzamide], the IC50 is reported as 198 nM.
Work on `CC(C)(C)C1CCC(N(Cc2ccc(C(=O)Nc3nn[nH]n3)cc2)C(=O)C/C=C/c2ccccc2)CC1` (centres unmarked) [Example 538, 4-{[(4-tert-Butylcyclohexyl)-(4-phenylbut-3-enoyl)amino]methyl}-N-(2H-tetrazol-5-yl)benzamide] yielded an IC50 of 180 nM.
`O=C(Nc1nn[nH]n1)c1ccc(CN(C(=O)/C=C/c2cccc3ccccc23)c2ccc(C3CCCCC3)cc2)cc1` [Example 534, 4-{[(4-Cyclohexylphenyl)-(3-naphthalen-1-ylacryloyl)amino]methyl}-N-(2H-tetrazol-5-yl)benzamide] showed an IC50 of 282 nM.
For `CCS(=O)(=O)c1cccc(NC(=O)N(Cc2ccc(C(=O)Nc3nn[nH]n3)cc2)c2ccc(C3CCCCC3)cc2)c1` [Example 453, 4-[1-(4-Cyclohexylphenyl)-3-(3-ethylsulfonylphenyl)ureidomethyl]-N-(2H-tetrazol-5-yl)benzamide], the IC50 was 72 nM.
For `N#Cc1cccc(NC(=O)N(Cc2ccc(C(=O)Nc3nn[nH]n3)cc2)c2ccc(C3CCCCC3)cc2)c1` [Example 256, 4-[3-(3-Cyanophenyl)-1-(4-cyclohexylphenyl)ureidomethyl]-N-(2H-tetrazol-5-yl)benzamide], the IC50 was 75 nM.
`CC(Oc1cccc(Cl)c1)C(=O)N(Cc1ccc(C(=O)Nc2nn[nH]n2)cc1)C1CCC(C(C)(C)C)CC1` (centres unmarked) [Example 548, 4-({(4-tert-Butylcyclohexyl)-[2-(3-chlorophenoxy)propionyl]amino}methyl)-N-(2H-tetrazol-5-yl)benzamide] was tested, and the IC50 was 309 nM.
For `CC(C)(C)[Si](C)(C)OCc1cc(NC(=O)N(Cc2ccc(C(=O)Nc3nn[nH]n3)cc2)c2ccc(C3CCCCC3)cc2)ccc1OC(F)(F)F` [Example 311, 4-[3-[3-(tert-Butyldimethylsilanyloxymethyl)-4-trifluoromethoxyphenyl]-1-(4-cyclohexylphenyl)ureidomethyl]-N-(2H-tetrazol-5-yl)benzamide], the IC50 was 32 nM.
`Cc1ccc(S(C)(=O)=O)cc1NC(=O)N(Cc1ccc(C(=O)Nc2nn[nH]n2)cc1)c1ccc(C2CCCCC2)cc1` [Example 261, 4-[1-(4-Cyclohexylphenyl)-3-(5-methylsulfonyl-2-methylphenyl)ureidomethyl]-N-(2H-tetrazol-5-yl)benzamide] was tested, and the IC50 was 302 nM.
`O=C(O)CCNC(=O)c1ccc(CN(Cc2ccc(Cl)c(Cl)c2)C(=O)Nc2ccc(OC(F)(F)F)cc2)cc1` [Example 432, 3-{4-[1-(3,4-Dichlorobenzyl)-3-(4-trifluoromethoxyphenyl)ureidomethyl]benzoylamino}propionic acid] showed an IC50 of 1800 nM.
Molecule `O=C(Nc1nn[nH]n1)c1ccc(CN(C(=O)Nc2cccc(SCC3CC3)c2)c2ccc(C3CCCCC3)cc2)cc1` [Example 299, 4-[1-(4-Cyclohexylphenyl)-3-(3-cyclopropylmethylsulfanylphenyl)ureidomethyl]-N-(2H-tetrazol-5-yl)benzamide] has an IC50 of 171 nM.
For `CSc1cccc(NC(=O)N(Cc2ccc(C(=O)Nc3nn[nH]n3)cc2)c2ccc(C(C)(C)C)cc2)c1` [Example 293, 4-[1-(4-tert-Butylphenyl)-3-(3-methylsulfanylphenyl)ureidomethyl]-N-(2H-tetrazol-5-yl)benzamide], the IC50 was 45 nM.

Same assay, conditions: Glu Bd Assay (III) IC50 (nM), BHK cell membranes, WGA SPA beads, 125I-glucagon
Molecule `CC(C)(C)[C@H]1CC[C@H](N(Cc2ccc(C(=O)NCCC(=O)O)cc2)C(=O)Nc2ccc(C#N)cc2OC(F)(F)F)CC1` [Example 247, 3-{4-[1-(trans-4-tert-Butylcyclohexyl)-3-(4-cyano-2-trifluoromethoxyphenyl)ureidomethyl]benzoylamino}propionic acid] has an IC50 of 215 nM.
